Data taken from patent US8563714B2, “Bridged spiro [2.4] heptane derivatives as ALX receptor and/or FPRL2 agonists” (Actelion Pharmaceuticals Ltd., priority 2009, dated 2013).

What was measured:
human ALX receptor = biological target: T1, human ALX receptor (Homo sapiens, UniProt P25090); assay: Intracellular calcium measurements (FLIPR), agonistic activity in HEK293-hALXR-Gα16 cells; assay type: cell-based; conditions: Fluo-4 calcium FLIPR, normalized to WKYMVm 10 nM
T1 construct: expressed in transfected cells; host or cells: HEK293 (HEK293-hALXR-Gα16)
T1 sequence (P25090 1-351): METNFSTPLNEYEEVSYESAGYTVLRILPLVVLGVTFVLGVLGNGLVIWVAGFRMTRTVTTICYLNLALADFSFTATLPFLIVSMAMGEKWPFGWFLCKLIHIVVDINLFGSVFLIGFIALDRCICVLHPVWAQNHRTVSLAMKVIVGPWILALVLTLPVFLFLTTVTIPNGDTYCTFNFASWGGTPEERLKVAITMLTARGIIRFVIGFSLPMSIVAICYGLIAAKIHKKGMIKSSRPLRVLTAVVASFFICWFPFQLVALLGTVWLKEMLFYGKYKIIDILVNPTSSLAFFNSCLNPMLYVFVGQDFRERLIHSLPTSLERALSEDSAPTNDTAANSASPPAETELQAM
Method in brief: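 HEK293 cells expressing hALXR and Gα16 were loaded with 1 μM Fluo-4 AM and 20 mM HEPES for 60 min at 37°C, then exposed to serially diluted compound. FLIPR fluorescence was read at ex 488/em 540 nm. Baseline-subtracted peak responses were normalized to 10 nM WKYMVm.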

human FPRL2 = biological target: T2, human FPRL2 (Homo sapiens, UniProt P25089); assay: Intracellular calcium measurements (FLIPR), agonistic activity in HEK293-hFPRL2-Gα16 cells; assay type: cell-based; conditions: Fluo-4 calcium FLIPR, normalized to GLY14-Humanin 100 nM
T2 construct: expressed in transfected cells; host or cells: HEK293 (HEK293-hFPRL2-Gα16)
T2 sequence (P25089 1-353): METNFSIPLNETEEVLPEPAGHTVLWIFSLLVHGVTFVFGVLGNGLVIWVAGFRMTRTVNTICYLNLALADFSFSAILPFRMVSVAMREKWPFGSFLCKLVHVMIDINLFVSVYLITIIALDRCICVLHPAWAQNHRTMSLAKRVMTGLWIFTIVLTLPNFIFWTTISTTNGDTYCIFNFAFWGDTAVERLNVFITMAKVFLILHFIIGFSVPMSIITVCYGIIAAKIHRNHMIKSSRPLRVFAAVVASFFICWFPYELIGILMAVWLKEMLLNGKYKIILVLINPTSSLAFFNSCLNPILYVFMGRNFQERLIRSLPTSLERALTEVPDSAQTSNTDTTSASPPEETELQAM
Method in brief: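 Peak values after baseline subtraction are expressed relative to 100 nM Gly14-Humanin; compounds diluted in assay buffer from 10 mM DMSO stocks.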

Structure (SMILES) | EC50 (human ALX receptor) [nM] | EC50 (human FPRL2) [nM]
NCC1CCN(C(=O)C2C(C(=O)Nc3ncc(Br)s3)C3CCC2C32CC2)CC1 [Example 336, (5R)—N^5-(5-Bromo-thiazol-2-yl)-(6R)—N^6,N^6-(3-(aminomethyl)pentane-1,5-diyl)-(4S,7R)-[4,7-ethylene-spiro[2.4]heptane]-5,6-dicarboxamide] | 6.2 | 1490
O=C(NCC1CCNCC1)[C@H]1[C@H](C(=O)Nc2ncc(Br)s2)[C@@H]2CC[C@H]1C21CC1 [Example 337, (5R)—N^5-(5-Bromo-thiazol-2-yl)-(6R)—N^6-(piperidin-4-yl-methyl)-(4S,7R)-[4,7-ethylene-spiro[2.4]heptane]-5,6-dicarboxamide] | 7.3 | 1210
O=C(NCCCCN1CCCC1)[C@H]1[C@H](C(=O)Nc2cnc(Br)c(F)c2)[C@@H]2C=C[C@H]1C21CC1 [Example 338, (5R)—N^5-(2-Bromo-3-fluoro-pyridin-5-yl)-(6R)—N^6-(4-pyrrolidino-butyl)-(4S,7R)-[4,7-ethenylene-spiro[2.4]heptane]-5,6-dicarboxamide] | 168 | 139
CC(C)(C)C1CCC(NC(=O)C2C(C(=O)NCCCCN3CCCC3)C3C=CC2C32CC2)CC1 (stereo not drawn) [Example 342, (5R*)—N^5-(4-tert-Butyl-cyclohexyl)-(6R*)—N^6-(4-pyrrolidino-butyl)-(4S*,7R*)-[4,7-ethenylene-spiro[2.4]heptane]-5,6-dicarboxamide] | > 2390 | 100
Cc1ccc(CCNC(=O)C2C(C(=O)NCCCCN3CCCC3)C3C=CC2C32CC2)cc1 (stereo not drawn) [Example 381, (5R*)—N^5-(2-(4-Methylphenyl)ethyl)-(6R*)—N^6-(4-pyrrolidino-butyl)-(4S*,7R*)-[4,7-ethenylene-spiro[2.4]heptane]-5,6-dicarboxamide] | 3900 | 30
O=C(NCCCCN1CCCC1)C1C(C(=O)NCCc2ccc(F)cc2)C2C=CC1C21CC1 (stereo not drawn) [Example 382, (5R*)—N^5-(2-(4-Fluorophenyl)ethyl)-(6R*)—N^6-(4-pyrrolidino-butyl)-(4S*,7R*)-[4,7-ethenylene-spiro[2.4]heptane]-5,6-dicarboxamide] | 6360 | 52
CCOc1ccc(CNC(=O)C2C(C(=O)NCCCCN3CCCC3)C3C=CC2C32CC2)cc1 (stereo not drawn) [Example 386, (5R*)—N^5-(4-Ethoxyphenyl-methyl)-(6R*)—N^6-(4-pyrrolidino-butyl)-(4S*,7R*)-[4,7-ethenylene-spiro[2.4]heptane]-5,6-dicarboxamide] | 2910 | 254
O=C(NCCCCN1CCCC1)[C@H]1[C@H](C(=O)NCCc2ccc(Cl)cc2)[C@@H]2C=C[C@H]1C21CC1 [Example 387, (5R)—N^5-(2-(4-Chlorophenyl)ethyl)-(6R)—N^6-(4-pyrrolidino-butyl)-(4S,7R)-[4,7-ethenylene-spiro[2.4]heptane]-5,6-dicarboxamide] | 8270 | 26
CN(C)CCNC(=O)[C@H]1[C@H](C(=O)NCCc2ccc(Cl)cc2)[C@@H]2C=C[C@H]1C21CC1 [Example 388, (5R)—N^5-(2-(4-Chlorophenyl)ethyl)-(6R)—N^6-(2-dimethylamino-ethyl)-(4S,7R)-[4,7-ethenylene-spiro[2.4]heptane]-5,6-dicarboxamide] | > 25000 | 623
O=C(NCCc1ccccn1)[C@H]1[C@H](C(=O)NCCc2ccc(Cl)cc2)[C@@H]2C=C[C@H]1C21CC1 [Example 389, (5R)—N^5-(2-(4-Chlorophenyl)ethyl)-(6R)—N^6-(2-(pyridin-2-yl)ethyl)-(4S,7R)-[4,7-ethenylene-spiro[2.4]heptane]-5,6-dicarboxamide] | > 25000 | 554
NS(=O)(=O)c1ccc(CCNC(=O)[C@H]2[C@H](C(=O)NCCc3ccc(Cl)cc3)[C@@H]3C=C[C@H]2C32CC2)cc1 [Example 390, (5R)—N^5-(2-(4-Chlorophenyl)ethyl)-(6R)—N^6-(2-(4-aminosulfonyl-phenyl)-ethyl)-(4S,7R)-[4,7-ethenylene-spiro[2.4]heptane]-5,6-dicarboxamide] | > 25000 | 576
O=C(NCCCCN1CCCC1)[C@H]1[C@H](C(=O)NCCc2ccc(Cl)cc2Cl)[C@@H]2C=C[C@H]1C21CC1 [Example 391, (5R)—N^5-(2-(2,4-Dichlorophenyl)ethyl)-(6R)—N^6-(4-pyrrolidino-butyl)-(4S,7R)-[4,7-ethenylene-spiro[2.4]heptane]-5,6-dicarboxamide] | 9710 | 3.8
CC(C)CCN1CCC(NC(=O)[C@H]2[C@H](C(=O)NCCc3ccc(Cl)cc3)[C@@H]3C=C[C@H]2C32CC2)CC1 [Example 392, (5R)—N^5-(2-(4-Chlorophenyl)ethyl)-(6R)—N^6—(N-isopentyl-piperidin-4-yl)-(4S,7R)-[4,7-ethenylene-spiro[2.4]heptane]-5,6-dicarboxamide] | 10400 | 20
O=C(NCCCCN1CCCC1)[C@H]1[C@H](C(=O)Nc2cc(F)c(Br)c(F)c2)[C@@H]2C=C[C@H]1C21CC1 [Example 393, (5R)—N^5-(4-Bromo-3,5-difluorophenyl)-(6R)—N^6-(4-pyrrolidino-butyl)-(4S,7R)-[4,7-ethenylene-spiro[2.4]heptane]-5,6-dicarboxamide] | 1190 | 16
O=C(NCCCCN1CCCC1)[C@H]1[C@H](C(=O)Nc2nc(Br)cs2)[C@@H]2C=C[C@H]1C21CC1 [Example 394, (5R)—N^5-(4-Bromo-thiazol-2-yl)-(6R)—N^6-(4-pyrrolidino-butyl)-(4S,7R)-[4,7-ethenylene-spiro[2.4]heptane]-5,6-dicarboxamide] | 1550 | 166
O=C(NCCCCN1CCCC1)[C@H]1[C@H](C(=O)Nc2ccc(Br)c(C(F)(F)F)c2)[C@@H]2C=C[C@H]1C21CC1 [Example 395, (5R)—N^5-(4-Bromo-3-trifluoromethylphenyl)-(6R)—N^6-(4-pyrrolidino-butyl)-(4S,7R)-[4,7-ethenylene-spiro[2.4]heptane]-5,6-dicarboxamide] | 3800 | 13
CC1CCC(C)N1CCCCNC(=O)[C@H]1[C@H](C(=O)Nc2ccc(Br)cc2)[C@@H]2C=C[C@H]1C21CC1 (stereo partly drawn) [Example 397, (5R)—N^5-(4-Bromophenyl)-(6R)—N^6-(4-(2,5-dimethylpyrrolidin-1-yl)butyl)-(4S,7R)-[4,7-ethenylene-spiro[2.4]heptane]-5,6-dicarboxamide] | 2.1 | 149
CC(CCCNC(=O)[C@H]1[C@H](C(=O)Nc2ccc(Br)cc2)[C@@H]2C=C[C@H]1C21CC1)N1CCCC1 (stereo partly drawn) [Example 398, (5R)—N^5-(4-Bromophenyl)-(6R)—N^6-(4-(pyrrolidin-1-yl)pentyl)-(4S,7R)-[4,7-ethenylene-spiro[2.4]heptane]-5,6-dicarboxamide] | 1.8 | 7510
O=C(NCCC(F)CN1CCCC1)[C@H]1[C@H](C(=O)Nc2ccc(Br)cc2)[C@@H]2C=C[C@H]1C21CC1 (stereo partly drawn) [Example 399, (5R)—N^5-(4-Bromophenyl)-(6R)—N^6-(3-fluoro-4-(pyrrolidin-1-yl)butyl)-(4S,7R)-[4,7-ethenylene-spiro[2.4]heptane]-5,6-dicarboxamide] | 5 | 4770
COCC1CCCN1CCCCNC(=O)[C@H]1[C@H](C(=O)Nc2ccc(Br)cc2)[C@@H]2C=C[C@H]1C21CC1 (stereo partly drawn) [Example 400, (5R)—N^5-(4-Bromophenyl)-(6R)—N^6-(4-(2-(methoxymethyl)pyrrolidin-1-yl)butyl)-(4S,7R)-[4,7-ethenylene-spiro[2.4]heptane]-5,6-dicarboxamide] | 1.4 | 7650
O=C(NCCCCN1CCC(F)(F)C1)[C@H]1[C@H](C(=O)Nc2ccc(Br)cc2)[C@@H]2C=C[C@H]1C21CC1 [Example 401, (5R)—N^5-(4-Bromophenyl)-(6R)—N^6-(4-(3,3-difluoropyrrolidin-1-yl)butyl)-(4S,7R)-[4,7-ethenylene-spiro[2.4]heptane]-5,6-dicarboxamide] | 4.4 | 516
O=C(NCCCCN1CCCC1)[C@H]1[C@H](C(=O)Nc2cnc(Br)c(F)c2)[C@@H]2CC[C@H]1C21CC1 [Example 402, (5R)—N^5-(2-Bromo-3-fluoro-pyridin-5-yl)-(6R)—N^6-(4-pyrrolidino-butyl)-(4S,7R)-[4,7-ethylene-spiro[2.4]heptane]-5,6-dicarboxamide] | 349 | 66
O=C(NCCO)[C@H]1[C@H](C(=O)Nc2ncc(Br)s2)[C@@H]2CC[C@H]1C21CC1 [Example 403, (5R)—N^5-(5-Bromothiazol-2-yl)-(6R)—N^6-(2-hydroxyethyl)-(4S,7R)-[4,7-ethylene-spiro[2.4]heptane]-5,6-dicarboxamide] | 158 | 21400
